Reference: patent US20250025493A1, “GLUCOHEXAOSE AND PREPARATION METHOD THEREFOR AND APPLICATION THEREOF, AND HAIR REGENERATION PREPARATION” (UNIVERSITY OF MACAU, priority 2021, published 2025)

Assays:
[1] = tested on: mouse bone marrow-derived macrophages (mBMDM); test: Induction and activation experiment on macrophages, eukaryotic mRNA sequencing of released cytokines; format: cell-based, mouse (C57BL/6J); settings: 50 ug/ml, 24 h co-incubation, vs PBS group, FIG. 1
Method: The gulcohexaose sample prepared in example 1 above was used to perform an induction and activation experiment on mouse bone marrow-derived macrophages (mBMDM, primary cells extracted from C57BL/6J mice by laboratory methods):
Mouse bone marrow-derived monocytes (5×10^6 cells/10 cm petri dish) were seeded in 10 cm petri dishes and cultured using L929 cell culture supernatant obtained after 7 days of culture+RPMI-1640 medium+10% fetal bovine serum+1% penicillin-streptomycin in a 37° C., 5% CO2 incubator. After cell adherence, the cells were co-incubated with 50 ug/ml gulcohexaose for 24 h, designated as OG6 group, while a blank group (an experimental group to which the gulcohexaose was not added and to which an equal volume (10 μl) of PBS buffer (mainly consisted of Na2HPO4, KH2PO4, NaCl and KCl) was added) was set up, designated as PBS group. After 24 h of co-incubation, the total RNA was extracted from the sample using TRIzol (Invitrogen), eukaryotic mRNA sequencing experiment analysis and bioinformatics analysis were performed, and the difference between the expression level of cytokines released by the mouse bone marrow-derived macrophages stimulated by the gulcohexaose and the expression level of cytokines released in the blank group was compared. This experiment was repeated twice.

[2] = tested on: hair follicles in back unhairing area, androgenetic alopecia (AGA) mouse model; test: Animal experiment, subcutaneous injection, mouse model of androgenetic alopecia (AGA); format: in vivo, C57BL/6J mice; settings: subcutaneous injection on D-0, D-7, D-14, FIG. 4
Text: (§1) The method is as follows: healthy male 7-week-old C57BL/6J mice were subjected to back unhairing treatment, wherein the hair on the back area was completely removed using an unhairing cream (Veet); starting from D-0, testosterone was topically applied to the back unhairing area of the mice every day to simulate androgenetic alopecia (AGA), and the hair growth of the mice was photographed for recording; the gulcohexaose was subcutaneously injected to the back unhairing area of the mice every seven days (D-0, D-7, D-14), designated as OG6 group; a blank group (no applying) was set up, designated as a control group; and the hair growth on the back of the mice was observed on day 21.

[3] = tested on: hair follicles in back unhairing area, androgenetic alopecia (AGA) mouse model; test: Animal experiment, microneedle administration, mouse model of androgenetic alopecia (AGA); format: in vivo, C57BL/6J mice; settings: microneedle administration on D-0, D-7, D-14, FIG. 5
Text: as §1, with “(AGA) for modeling,” for “(AGA),”, “microneedle administered” for “subcutaneously injected”

[4] = tested on: hair follicles in back unhairing area, androgenetic alopecia (AGA) mouse model; test: Animal experiment, direct application, mouse model of androgenetic alopecia (AGA); format: in vivo, C57BL/6J mice; settings: direct topical application on D-0, D-7, D-14, FIG. 3
Text: The gulcohexaose sample prepared in example 1 was investigated for the biological effect in promoting hair follicle regeneration.
The method is as follows: healthy male 7-week-old C57BL/6J mice were subjected
as §1, with “to” for “The method is as follows: healthy male 7-week-old C57BL/6J mice were subjected to”, “establish a mouse model of” for “simulate”, “directly and topically applied” for “subcutaneously injected”

[5] = tested on: androgenetic alopecia in mouse models; test: Treatment of androgenetic alopecia in mouse models, summary over all administration routes; format: in vivo, mice; settings: direct skin application, subcutaneous injection or microneedle release administration
Text: The glucohexaose used in the present disclosure can be used to treat androgenetic alopecia in mouse models via any one of direct skin application administration, subcutaneous injection administration and microneedle release administration, and the hair formation is observed.

[6] = tested on: Ccl5 gene in mouse bone marrow-derived macrophages (mBMDM); test: Verification experiment, real-time fluorescence quantitative PCR of Ccl5 gene expression in macrophages; format: cell-based, mouse (C57BL/6J); settings: 50 ug/ml, FIG. 2
Text: To verify the experimental results of eukaryotic mRNA sequencing analysis, a real-time fluorescence quantitative PCR experiment was used to determine the expression level of Ccl5 gene in macrophages stimulated by the gulcohexaose. The gulcohexaose prepared in example I was used to perform an induction and activation experiment on mouse bone marrow-derived macrophages (mBMDM, primary cells extracted from C57BL/6J mice by laboratory methods): • mouse bone marrow-derived monocytes (5×10^6 cells/10 cm petri dish) were seeded in 10 cm petri dishes and cultured using L929 cell culture supernatant obtained after 7 days of culture+RPMI-1640 medium+10% fetal bovine serum+1% penicillin-streptomycin in a 37° C., 5% CO2 incubator. […] After co-incubation for different time periods, the total RNA was extracted from the samples respectively, and the expression levels of Ccl5 cytokine in mouse bone marrow-derived macrophages before and after the stimulation by the gulcohexaose were detected by real-time quantitative PCR.

## Man-Man-Man-Man-Glc-Glc [gulcohexaose]
[1]
  expression level of cytokines released by macrophages versus blank group (mRNA sequencing): can specifically activate macrophages to release a cytokine network mainly comprising CCL5 chemotactic factors
[2]; day 21
  hair growth on day 21 compared with blank group: obviously superior to that on the mice in the blank group
[2]; testosterone-induced AGA mice
  hair follicle stage in back treatment area compared with blank group: have entered a growth period from a resting period and grew hair
[3]; observed day 21
  hair growth at treated part compared with blank group: obviously denser than that on the mice in the blank group
[3]; testosterone-induced AGA mice
  hair follicle stage in back treatment area compared with blank group: the first to enter a growth period from a resting period and are the first to grow hair
[4]; day 21
  hair growth on day 21 compared with blank group: obviously superior to that on the mice in the blank group
[4]; testosterone-induced AGA mice
  hair follicle stage in back treatment area compared with blank group: have entered a growth period from a resting period and grew hair
[5]
  adverse reactions: without any serious adverse reactions
  growth of hair on the back of mice: can effectively promote the growth of hair on the back of mice
[6]; 1 h, 12 h and 24 h, vs PBS group
  expression level of Ccl5 cytokine in macrophages (real-time quantitative PCR): rapidly upregulate the expression level of Ccl5 cytokine
[6]; 24 h
  expression level of Ccl5 cytokine in macrophages after 24 hours of stimulation: high expression level of Ccl5 cytokine in macrophages maintained
